The source of these data is patent publication US7662782B2, “Melanocortin 1 receptor selective compounds” (Action Pharma A/S, priority 1998, dated 2010).

pKi: −log10 of the molar value. Square brackets hold non-standard residues; d marks the D form. Ends that are not written are not given here. Peptide text beside a SMILES is read from it.

Assay [1] concerns the target T1, human MC3-receptor (Homo sapiens, UniProt P41968).
T1 construct: expressed in transfected cells; host or cells: COS (COS-1) cells, transient, 48 h
Put plainly: Competition for [125I]NDP-MSH binding to recombinant human MC3-receptor in COS cells. As to conditions: for pKi: [125I]NDP-MSH competition, transfected COS cells. Here is the method: (§1) Expression of receptor clones. Human MC1- and MC5-receptor DNAs (Chhajlani and Wikberg 1992; Chhajlani et al., 1993), cloned into the expression vector pRc/CMV (InVitrogen Corp., USA), and human MC3- and human MC4-receptor DNAs (Gantz et al., 1993a & b), cloned into the expression vector pCMV/neo, were used. COS cells were grown and transfected with receptor clones as described (Schiöbth et al. 1995, 1996b). After transfection cells were cultivated for 48 h, detached from the Petri dishes, and used for radioligand binding as described (Schiöth et al. 1995, 1996b).
(§2) Binding studies. […] The competition data were analyzed by fitting it to the logistic function using non-linear regression analysis. The Ki-values were then calculated from the thus obtained IC50-values by using the Cheng and Prusoff equation, essentially as described by Schiöth et al. 1995, 1996b.

The target of assay [2] is T2, human MC4-receptor (Homo sapiens, UniProt P32245).
T2 construct: expressed in transfected cells; host or cells: COS (COS-1) cells, transient, 48 h
T2 sequence (P32245 whole entry): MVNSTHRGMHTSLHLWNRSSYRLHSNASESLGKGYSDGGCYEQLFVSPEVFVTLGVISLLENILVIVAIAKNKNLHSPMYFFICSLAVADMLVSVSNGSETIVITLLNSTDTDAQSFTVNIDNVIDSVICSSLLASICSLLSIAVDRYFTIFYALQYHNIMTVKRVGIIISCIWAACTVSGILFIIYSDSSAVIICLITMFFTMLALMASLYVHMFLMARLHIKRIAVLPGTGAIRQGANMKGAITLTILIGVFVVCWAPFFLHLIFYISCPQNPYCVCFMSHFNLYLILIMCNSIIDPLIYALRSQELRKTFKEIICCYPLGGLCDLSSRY
Put plainly: Competition for [125I]NDP-MSH binding to recombinant human MC4-receptor in COS cells. As to conditions: for pKi: [125I]NDP-MSH competition, transfected COS cells. Here is the method: as §1, §2

Assay [3] deals with T3, human MC5-receptor (Homo sapiens, UniProt P33032).
T3 construct: expressed in transfected cells; host or cells: COS (COS-1) cells, transient, 48 h
T3 sequence (P33032 whole entry): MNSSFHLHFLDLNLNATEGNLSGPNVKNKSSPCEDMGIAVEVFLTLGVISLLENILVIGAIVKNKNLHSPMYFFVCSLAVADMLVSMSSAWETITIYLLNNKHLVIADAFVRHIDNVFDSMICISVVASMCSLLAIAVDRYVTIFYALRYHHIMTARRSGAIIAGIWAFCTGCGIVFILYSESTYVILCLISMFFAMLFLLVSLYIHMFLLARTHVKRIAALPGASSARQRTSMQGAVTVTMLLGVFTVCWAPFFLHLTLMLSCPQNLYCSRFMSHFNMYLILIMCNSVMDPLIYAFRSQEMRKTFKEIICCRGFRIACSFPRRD
Put plainly: Competition for [125I]NDP-MSH binding to recombinant human MC5-receptor in COS cells. The following applies: for pKi: [125I]NDP-MSH competition, transfected COS cells. Here is the method:
as §1, §2

Assay [4] has as its target T4, human MC1-receptor (Homo sapiens, UniProt Q01726). Nature of the assay: Stimulation of cAMP formation in B16G4F cells stably expressing human MC1-receptors. In kind it is cell-based. More on the design: expressed in transfected cells. As to conditions: for Fold stimulation of cAMP: vs untreated control cells, mean ± SD of 3 experiments. Here is the method: Human MC1-receptors had been cloned earlier into pZeoSV (Invitrogen) (Szardenings et al., 1997). The resulting vectors were used for transformation of the amelanotic mouse melanoma cell line B16G4F that lacks the mouse MC1-receptors (Solca et al., 1993) using liposomes (Campbell, 1995) as described previously (Schiöth et al., 1997b). Cells were cultivated in Dulbecco's modified Eagle's medium with 10% fetal calf serum at 7% CO2 for 24 hours and seeded on large plates in the same medium containing 300 μg/ml Zeocin. The medium was exchanged every 4-5 days until cell foci appeared. Single foci were isolated and grown under antibiotic selection.
For cAMP measurements the cells were detached from 60-80% confluent adherent cultures using Hank's balanced salts containing 0.5 mM EDTA and incubated for 30-60 min at 37° C. in ordinary growth medium containing 0.5 mM of the phosphodiesterase inhibitor 3-isobutyl-1-methyl-xanthine (IBMX). 20 μl aliquots of appropriate dilutions of test compounds in growth medium were prepared in 96 well microtitre plates and placed in a water bath at 37° C. For the stimulation about 1.5×10^5 cells in 180 μl were quickly added to each well to obtain immediate mixing. After 20 min 20 μl of 4.4 M perchloric acid were added, mixed, neutralized after a few minutes by addition of 20 μl base (5 M KOH, 1 M Tris) and centrifuged.
20 μl of acid treated supernatant obtained above were mixed with 50 μl buffer (100 mM Tris-Cl, 250 mM NaCl, 10 mM EDTA, 0.1% mercaptoethanol, 0.5 mM IBMX, pH=7.4) containing 0.01 μCi [^3H]cAMP (Amersham, 1.04 TBq/mmol, 1 μCi/μl, product no.: TRK304). 200 μl of the same buffer containing a 1:16 diluted porcine adrenal gland bark extract (prepared as described by Nordstedt and Fredholm, 1990) were added and the microtitre plates were incubated for at least 2 hours at 4° C. A standard curve was prepared in the same manner with dilutions of cAMP covering the range 2 μM -0.5 nM.
After completion of incubation the solutions were filtered over GF-B glassfibre filters (Whatman) and washed briefly with ca. 2 ml ice-cold washing buffer (50 mM Tris-Cl, pH=7.4). Radioactivity on the filters was measured after-addition of scintillation liquid. Stimulation experiments were determined in quadruplicates and standard curves in duplicates.

Assay [5] has as its target T4, human MC1-receptor. Nature of the assay: Competition for [125I]NDP-MSH binding to recombinant human MC1-receptor in COS cells. Set-up: expressed in transfected cells; host or cells: COS (COS-1) cells, transient, 48 h. The following applies: [125I]NDP-MSH competition, transfected COS cells. Here is the method:
as §1, §2

The subject of assay [6] is mouse B16 melanoma cells. Nature of the assay: Stimulation of cAMP-formation in mouse B16 melanoma cells. It counts as cell-based. As to conditions: FIG. 3; both peptides at similar potencies and efficacies. The protocol: B16 mouse melanoma cells (B16-F1; CRL-6323, American Type Culture Collection, 12301 Parklawn Drive, Rockville, Md., 20852), were cultured in Dulbecco's modified Eagle medium (DMEM; Gibco BRA Gaithersburg, USA, cat no. 041-01966H) supplemented with 10% heat-inactivated fetal bovine serum, 100 IU penicillin/mL and 100 μg streptomycin/mL at 37° C. in a humidified atmosphere of 95% air and 5% CO2. Cells grown in monolayers were detached from 60-80% confluent adherent cultures using Hank's balanced salts containing 0.5 mM EDTA and collected by low speed centrifugation (700×g).
The cells were incubated for 30 min at 37° C. in DMEM containing 0.5 mM of the phosphodiesterase inhibitor 3-isobutyl-1-methyl-xanthine (IBMX). 20 μL aliquots of appropriate dilutions of test compounds in growth medium were prepared in 96 well microtitre plates The plates were then placed in a water bath at 37° C. and about 1.5×10^5 cells in 180 μL were quickly added to each well to obtain immediate mixing. […]
After completion of the incubations the solutions were rapidly filtered onto GF-B glassfibre filters (Whatman), followed by rapid washing of filters with 2 ml ice-cold washing buffer (50 mM Tris-Cl, pH 7.4). […] Radioactivity was counted using a β-counter. Cell experiments were determined in quadruplicates and standard curves in duplicates.

Assay [7] concerns mouse RAW 264.7 macrophage cells. Put plainly: Stimulation of cAMP-formation in mouse RAW 264.7 macrophage cells. The following applies: FIG. 5; both peptides at similar potencies and efficacies. It counts as cell-based. The protocol: RAW 264.7 cells were grown as described in Example 6. cAMP was determined essentially as described in Example 5.
Assay [8] has the same test system. Nature of the assay: Inhibition of nitric oxide production in LPS/interferon gamma stimulated RAW 264.7 cells. It counts as cell-based. The following applies: FIG. 6; 100 ng/mL LPS + 5 units/mL interferon gamma, 16 h; potencies and efficacies similar to α-MSH. The protocol:
RAW 264.7 cells (TIB-71), obtained from American Type Culture Collection, 12301 Parklawn Drive, Rockville, Md., 20852, USA, and cultured in Dulbecco's modified Eagle medium (Gibco, BRL) supplemented with 10% heat-inactivated fetal bovine serum, 100 IU penicillin/ml and 100 μg streptomycin/ml at 37° C. in a humidified atmosphere of 95% air and 5% CO2. Cells grown in monolayers were detached from the culture flasks and collected by low speed centrifugation (700×g). […]
Nitric oxide was measured by monitoring the nitrite production essentially using the method of Wishnok et al. (Methods in Enzymology, 1996, 268, 130-151). In brief 50 μL of culture medium was mixed with 50 μL Griess reagent (i.e. a 1:1 mixture of 0.1% N-naphthylethylenediamine dihydrochloride and 1% sulfanilamide in 5% (v/v) phosphoric acid) and after 10 min the absorption was measured at 540 nm. The nitrite concentrations were calculated from a standard curve constructed, by instead of culture medium, adding 50 μL of between 3 to 100 μM of NaNO2 to the assays.

In assay [9] the test system is BALB/C mice. Put plainly: DNFB contact hypersensitivity in BALB/C mice (paw oedema, blood cell counts). It counts as in vivo, mouse. As to conditions: for inhibition of paw oedema: daily, vs DNFB animals not given MS05. Here is the method:
Marked positive treatment effects were found upon administration of MS05 to BALB/C mice. Animals were sensitized by injection of 2,4-dinitrofluorobenzene (DNFB). First 30 μL of 0.5% DNFB was administered to the shaved abdomen of the mice and after 4 days 10 μL of 0.3% DNFB was challenged to one paw, another paw being unchallenged and serving as a control. MS05 was administered, using a solution of MS05 in 0.9% saline, intraperitonally two hours before sensitization, and then the same dose was given intra-peritonally for four consecutive days, each dose of MS05 amounting to 0.05, 0.25, 0.37, 0.5 and 0.75 mg/kg. […] Therefore the compound of the invention is in a further sense immunomodulatory.

The subject of assay [10] is human microvascular endothelial cells (HMEC-1 cells). Nature of the assay: TNF α induced adhesion molecule expression in HMEC-1 cells. In kind it is cell-based. The following applies: TNF α 10 ng/mL. The protocol: In further tests the MS05 or MS09 was administered to human microvascular endothelial cells (HMEC-1 cells; Department of Health & Human Services, Centres for Disease Control and Prevention, Atlanta, Ga. 30333, USA) in vitro. […] In this context by ICAM-1 is intended intercellular adhesion molecule type 1, by VCAM is intended vascular adhesion molecule, and by E-Selectin is intended endothelial selectin (Sluiter et al, J. Cardiovasc. Pharmacol. 1993, 22 Suppl 4: S37-44, Elangbam et al., Vet. Pathol. 1997 Jan. 34(1): 61-73).

Where [11] appears, read: intraperitoneal, best effect at 0.5 mg/kg daily.

T4 sequence (Q01726 whole entry): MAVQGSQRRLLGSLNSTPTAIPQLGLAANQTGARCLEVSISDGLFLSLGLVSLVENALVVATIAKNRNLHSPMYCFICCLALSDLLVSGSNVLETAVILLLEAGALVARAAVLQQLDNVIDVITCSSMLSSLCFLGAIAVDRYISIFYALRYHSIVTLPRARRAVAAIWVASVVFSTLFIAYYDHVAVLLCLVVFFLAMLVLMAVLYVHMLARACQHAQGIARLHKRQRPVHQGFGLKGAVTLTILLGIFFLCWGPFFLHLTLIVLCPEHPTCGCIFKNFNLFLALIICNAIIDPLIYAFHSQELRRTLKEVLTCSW
T1 sequence (P41968 whole entry): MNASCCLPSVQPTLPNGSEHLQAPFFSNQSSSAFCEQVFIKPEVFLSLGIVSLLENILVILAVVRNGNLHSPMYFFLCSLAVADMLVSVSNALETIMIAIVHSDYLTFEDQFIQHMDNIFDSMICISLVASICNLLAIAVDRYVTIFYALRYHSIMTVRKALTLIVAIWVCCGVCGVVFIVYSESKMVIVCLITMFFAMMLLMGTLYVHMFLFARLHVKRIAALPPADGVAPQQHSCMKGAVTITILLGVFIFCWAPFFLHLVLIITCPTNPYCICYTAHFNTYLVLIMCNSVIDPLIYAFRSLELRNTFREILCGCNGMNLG

The pKi is −log10 of the Ki, conventionally taken in molar units. With `CC[C@H](C)[C@H](NC(=O)[C@H](CO)NC(=O)[C@@H](N)CO)C(=O)N[C@H](C(=O)N[C@@H](CO)C(=O)N[C@@H](Cc1c[nH]cn1)C(=O)N[C@H](Cc1ccccc1)C(=O)N[C@@H](CCCNC(=N)N)C(=O)N[C@@H](Cc1c[nH]c2ccccc12)C(=O)NCC(=O)N[C@@H](CCCCN)C(=O)N1CCC[C@H]1C(=O)N[C@H](C(N)=O)C(C)C)[C@@H](C)CC` [MS09, Ser-Ser-Ile-Ile-Ser-His-dPhe-Arg-Trp-Gly-Lys-Pro-Val-NH2] (H-SSIISH[dF]RWGKPV-NH2), the pKi is 8.15 in [1], 7.40 in assay [2], 6.92 in assay [3] and 9.70 in assay [5]. Besides, the “% of 10 nM α-MSH (cAMP stimulation)” value in assay [4] (10 nM compound) is 89%.
As for “SSIISHFRWGKPV-NH2 [MS05, L-seryl-L-seryl-L-Isoleucyl-L-isoleucyl-L-seryl -L-histidyl-L-phenylalanyl-L-arginyl-L-tryptophanyl-glycyl-L-lysyl-L-prolyl-L-valinamide]”, the negative logarithm of the Ki (pKi) in assay [1] is 5.86; in assay [2], below 4.30; in assay [3], below 4.30; in [5], 9.12. Further, in assay [1] (ratio of Ki values), the “fold lower affinity for the MC3 receptor than for the MC1-receptor” value is on record as 1800 fold. The “fold lower affinity for the MC4 receptor than for the MC1-receptor” value in assay [2] (ratio of Ki values) is reported as “more than 65000 fold”. Further, in [3] (ratio of Ki values), the “fold lower affinity for the MC5 receptor than for the MC1-receptor” value is reported as “more than 65000 fold”. Also, the “effect on cAMP levels in mouse B16 melanoma cells” value in assay [6] was “marked increase in cAMP”. Further, the “effect on cAMP levels in mouse RAW 264.7 cells” value in assay [7] is “marked increase in cAMP”. Besides, the “inhibition of NO-production” value in assay [8] is listed as “strong dose dependent inhibition”. The “inhibition of paw oedema” value turned out to be 3% in assay [9] (0.05 mg/kg intraperitoneal); 5% in assay [9] (0.25 mg/kg intraperitoneal); 12% in [9] (0.37 mg/kg intraperitoneal); 39% in assay [9] (0.5 mg/kg intraperitoneal); 10% in [9] (0.75 mg/kg intraperitoneal). Also, the “DNFB induced increase in blood platelet counts” value in assay [9] (intraperitoneal) is recorded as “returned towards the normal”. In [9] (intraperitoneal), the “DNFB induced increase in count of lymphocytes/monocytes in the blood” value is listed as “essentially returned to normal levels”. The “DNFB induced increase in granulocyte counts of the blood” value in [9] (setting [11]) is “essentially normalized”. Moreover, the “DNFB induced increase in total white cell blood counts” value in [9] (setting [11]) was “essentially normalized”. Also, the “TNF α upregulated expression of mRNA for ICAM-1, VCAM and E-Selectin” value in assay [10] is “inhibition of the upregulated expression of mRNA”. Besides, the “TNF α upregulation of the ICAM-1, VCAM and E-Selectin proteins” value in [10] is reported as “inhibition of the upregulation”. Further, in assay [4] (10 nM compound), the “% of 10 nM α-MSH (cAMP stimulation)” value came to 69%. Moreover, the “Fold stimulation of cAMP” value is on record as 4.6 ± 0.3 fold in assay [4] (10 nM compound) and 6.7 ± 0.3 fold in [4] (1 μM compound).
